Source: ChEMBL document CHEMBL1131163 (J Med Chem, 1998)

Biological target: D(2) dopamine receptor (Rattus norvegicus) (UniProt P61169)
Sequence (P61169 whole entry, looked up): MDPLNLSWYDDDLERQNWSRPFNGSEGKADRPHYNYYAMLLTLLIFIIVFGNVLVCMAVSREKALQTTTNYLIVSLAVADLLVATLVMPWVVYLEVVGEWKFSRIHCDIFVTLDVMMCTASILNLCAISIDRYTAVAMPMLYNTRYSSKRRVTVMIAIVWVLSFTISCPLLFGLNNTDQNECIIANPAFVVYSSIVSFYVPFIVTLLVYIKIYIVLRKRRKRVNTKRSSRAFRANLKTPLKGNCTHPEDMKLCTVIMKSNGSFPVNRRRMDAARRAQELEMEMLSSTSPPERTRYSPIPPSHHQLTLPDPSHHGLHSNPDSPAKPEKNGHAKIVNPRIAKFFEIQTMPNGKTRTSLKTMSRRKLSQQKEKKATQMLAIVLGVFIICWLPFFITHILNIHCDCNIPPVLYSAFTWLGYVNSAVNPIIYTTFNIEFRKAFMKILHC

CN1C[C@H](C(N)=O)C=C2c3cccc4[nH]c(Br)c(c34)C[C@H]21
Ki: 2 nM
